Assay results: paper PMC6472409, “Dishevelled-3 conformation dynamics analyzed by FRET-based biosensors reveals a key role of casein kinase 1” (Nature Communications, 2019)
Where “and” joins values, the source holds several entries; their conditions need not be identical. Equal entries are not always repeated.

Assays:
Assay type in all cases: cell-based, human
[1] = test system: Wnt/β-catenin pathway; experiment: Dual Luciferase TopFlash/Renilla Reporter Assay; conditions: for TopFlash relative to ctrl (= 1): Suppl. Fig. 2a; for TopFlash FlAsH III (CK1e-/-), relative to ctrl (= 1): Suppl. Fig. 4f, CK1e-/- cells
Procedure: Cells were transfected 24 h after seeding with 0.1 μg of Super8X TopFlash construct, 0.1 μg of Renilla luciferase construct, and 0.1 μg of corresponding plasmids per well for 6 h in a 24-well plate. As for the ECFP-DVL3 FIII wt stable cell lines, transfection was followed by 4 h induction of tetracycline (1 µg/ml) and 8 h treatment of CM:DMEM (1:1 ratio). For performing this assay, Promega Dual Luciferase assay kit (Promega, #E1910) was used according to the manufacturer’s instructions. Luminescence was measured by a Hidex Bioscan Plate Chameleon Luminometer. Results are depicted as the ratio of TopFlash and Renilla signal (TopFlash fold induction), which was normalized for each experiment to certain control column (normalized TopFlash fold induction). Data were analyzed by MS Excel 2007 and GraphPad Prism 6 and results were shown as the means ± S.D. (number of experiments indicated ad hoc).

[2] = test system: DVL3 subcellular localization in HEK293 cells; experiment: DVL3 subcellular localization (punctae/even), immunofluorescence
[3] = test system: DVL3 membrane recruitment by FZD6 in HEK293 cells; experiment: FZD6-dependent membrane recruitment of DVL3, immunofluorescence; design: key to Non-recruited (DVL3 membrane recruitment): number of cells out of 100 positive cells scored; conditions: Fig 8c
Description: First, we analyzed the preferred subcellular localization of DVL3 (as introduced in Fig. 2c)[10],[14]. […] Next, we investigated if DVL3 conformation correlates with the capacity of DVL3 to be recruited by FZD6, a key Wnt receptor, to the plasma membrane. For this purpose, we co-expressed FZD6 and analyzed membrane recruitment of DVL3 in FZD6-positive cells by immunofluorescence. Individual cells were categorized as: not recruited (Fig. 8b, no DVL3 in the membrane), partially recruited (clear membrane as well as cytoplasmic localization), and fully recruited (predominantly plasma membrane localization, Fig. 8c, left). […] In the last readout we analyzed the capacity of DVL3 to activate downstream Wnt/β-catenin pathway monitored by TopFlash reporter assay (Fig. 8d). […] On the other hand, under conditions that favor the open conformation both activation as well as inhibition of the Wnt/β-catenin pathway was evident.
For immunofluorescence, cells were seeded (40,000 per well) on 24-well plates with gelatin-coated coverslips and transfected, as indicated, with 0.1 μg of each corresponding plasmid (0.3 μg of mCherry-FZD6) for 6 h. For western blotting and Dual Luciferase TopFlash/Renilla Reporter Assay, cells were seeded (60,000 per well) directly on 24-well plates with 0.1 μg of each corresponding plasmid (if not indicated otherwise) for 6 h. For coimmunoprecipitation, cells were seeded (4.4 × 10^6) on 10-cm dishes and transfected with 1 μg of each corresponding plasmid. The next day after seeding, cells were transfected using polyethyleneimine (PEI) in a stoichiometry of 6 μl of PEI per 1 μg of DNA for 6 h and were harvested 24 h after transfection. The following plasmids used in HEK293 cells have been described previously: FLAG-DVL3 wt[47], CK1ϵ wt[48], mCherry-FZD6 (ref. [37]), and dominant-negative CK1ϵ P3 (ref. [33]). The ECFP-DVL3 wt plasmid was made by Gateway Technology (via LR recombination according to the manufacturer’s instructions; Thermo Fisher Scientific, #11791020) from the donor plasmid pDONR221 DVL3 (DNASU, #FLH178665.01x) and the destination plasmid pdECFP (LMBP, #4548). The HA-DVL3 wt plasmid was made by Gateway Technology from the donor plasmid pDONR221 DVL3 (DNASU, #FLH178665.01x) and the destination plasmid pcDNA3.1 N-term HA (gift from Erich Nigg).
Cells were seeded on gelatin-coated coverslips in 24-well plates and were transfected the next day. Cells were fixed 24 h later in fresh 4% paraformaldehyde, permeabilized with 0.5% Triton X-100, blocked with PBS/BSA/Triton/Azide buffer (PBTA) [3% (wt/vol) BSA, 0.25% Triton, 0.01% NaN3] for 1 h, and incubated overnight with primary antibodies (in dilution 1:500) in PBTA at 4 °C. The next day, the coverslips were washed in PBS and incubated with secondary antibodies conjugated to Alexa Fluor 488 (Invitrogen A11001) or/and Alexa Fluor 594 (Invitrogen A11058) (all in dilution 1:1000), washed with PBS [in case of samples containing FLAG-DVL3 WT and derived variants stained with DAPI (1:5000)], and all coverslips were mounted on microscopic slides. Cells were then visualized on an Olympus IX51 fluorescent microscope using ×40 air or ×100 oil objectives and/or an Olympus Fluoview 500 confocal laser scanning microscope IX71 using ×100 oil objective. One hundred positive cells per experiment (n = 3) were analyzed and scored according to their phenotype into two/three categories (punctae/even); or non-recruited/partially/fully recruited for FZD6-dependent recruitment of DVL3. The antibodies used were as follows: anti-FLAG M2 (Sigma-Aldrich, #F1804), anti-DVL3 (Santa Cruz, #sc-8027), anti-CK1ɛ (Santa Cruz, #sc-6471), anti-RFP (Chromotek, #5h9) and anti-GFP (Fitzgerald, #20R-GR-011).

[4] = sensor FlAsH III, replicate of grid row r5
[5] = sensor FlAsH III, replicate of grid row r6
[6] = sensor FlAsH III, replicate of grid row r7
[7] = Fig 2c, DVL3-FLAG, 10 μM inhibitor, replicate 1, 100 cells
[8] = Fig 8b, ECFP-DVL3 wt, HEK293 wt, inhibitor, exp1-exp3, 100 cells each, listed as INH

Structure (SMILES): Nc1nccc(-c2c(-c3ccc(F)cc3)ncn2C2CCCCC2)n1 [PF670462, reference compound]
- TopFlash/Renilla activation, in words ([1]; DVL3 wt + inhibitor, HEK293 cells, Fig 8d): no (or negligible) TopFlash/Renilla activation
- TopFlash relative to DVL3 wt (= 1) ([1]; Fig 8d, replicate of grid row r4): 0.13
- TopFlash relative to DVL3 wt (= 1) ([1]; Fig 8d, replicate of grid row r5): 0.1
- TopFlash relative to DVL3 wt (= 1) ([1]; Fig 8d, replicate of grid row r6): 0.2
- TopFlash relative to ctrl (= 1) ([1]; sensor FlAsH I, replicate of grid row r5): 0.09288
- TopFlash relative to ctrl (= 1) ([1]; sensor FlAsH I, replicate of grid row r6): 0.06555
- TopFlash relative to ctrl (= 1) ([1]; sensor FlAsH I, replicate of grid row r7): 0.095
- TopFlash relative to ctrl (= 1) ([1]; sensor FlAsH II, replicate of grid row r5): 0.04123
- TopFlash relative to ctrl (= 1) ([1]; sensor FlAsH II, replicate of grid row r6): 0.0401
- TopFlash relative to ctrl (= 1) ([1]; sensor FlAsH II, replicate of grid row r7): 0.09362
- TopFlash relative to ctrl (= 1) [1, 4]: 0.07646
- TopFlash relative to ctrl (= 1) [1, 5]: 0.1238
- TopFlash relative to ctrl (= 1) [1, 6]: 0.1277
- TopFlash relative to ctrl (= 1) ([1]; sensor FlAsH IV, replicate of grid row r5): 0.0466
- TopFlash relative to ctrl (= 1) ([1]; sensor FlAsH IV, replicate of grid row r6): 0.04626
- TopFlash relative to ctrl (= 1) ([1]; sensor FlAsH IV, replicate of grid row r7): 0.05626
- TopFlash FlAsH III (CK1e-/-), relative to ctrl (= 1) [1, 4]: 0.8229
- TopFlash FlAsH III (CK1e-/-), relative to ctrl (= 1) [1, 5]: 0.6189
- TopFlash FlAsH III (CK1e-/-), relative to ctrl (= 1) [1, 6]: 1.097
- Even (%) [2, 7]: 1%
- Punctae (%) [2, 7]: 99%
- Punctae (%) ([2]; Fig 2c, DVL3-FLAG, 10 μM inhibitor, replicate 2, 100 cells): 98%
- Punctae (%) ([2]; Fig 2c, DVL3-FLAG, 10 μM inhibitor, replicate 3, 100 cells): 99%
- Even (%) [2, 8]: 5% and 11% and 8%
- Punctae (%) [2, 8]: 95% and 89% and 92%
- Fully recruited (DVL3 membrane recruitment) ([3]; exp1): 1
- Non-recruited (DVL3 membrane recruitment) ([3]; exp1): 77
- Partially recruited (DVL3 membrane recruitment) ([3]; exp1): 22
- Fully recruited (DVL3 membrane recruitment) ([3]; exp2): 10
- Non-recruited (DVL3 membrane recruitment) ([3]; exp2): 66
- Partially recruited (DVL3 membrane recruitment) ([3]; exp2): 24
- Fully recruited (DVL3 membrane recruitment) ([3]; exp3): 15
- Non-recruited (DVL3 membrane recruitment) ([3]; exp3): 59
- Partially recruited (DVL3 membrane recruitment) ([3]; exp3): 26
